Laboratory results taken from BindingDB's records for patent US20250235456 (Iambic Therapeutics, 2025).

Molecular target: Cyclin-dependent kinase 1 (Homo sapiens, UniProt P06493)
Assay: CDK1/Cyclin B1 ADP-Glo Kinase Assay
Experimental: (§1) The purpose of CDK1/Cyclin Bi assay is to evaluate the inhibition (% inhibition and IC50 values) of small molecule inhibitors by using a Luminescent based ADP-Glo assay. CDK1/Cyclin B1 catalyzes the production of ADP from ATP. ADP-Glo assay monitors ADP producing biochemical reactions. ADP-Glo is performed in 2 steps upon completion of kinase reaction: a combined termination of kinase reaction and depletion of remaining ATP in the first step, and conversion of generated ADP to ATP and the newly produced ATP to light output using luciferase/luciferin reaction in the second step. The luminescent signal generated is proportional to the ADP concentration produced and is correlated with the kinase activity. CDK1/Cyclin B1 was purchased from Carna (Cat 04-102). […] The assay was initiated with the addition of ATP-containing substrate solution, following a 30-minute pre-incubation of enzyme and inhibitor at room temperature in the reaction mixture. The reaction was stopped after 90 minutes at room temperature by the addition of 10 μL of ADP-GLO Reagent. After a 90 minute incubation, 20 μL of Kinase Detection Reagent was added. Samples were incubated for 40 minutes, after which plate well luminescence was measured on a Envision microplate reader. The IC50 determinations were made from a plot of the fractional velocity as a function of inhibitor concentration fit to the 4 parameters IC50 equation.

Chain of Cyclin-dependent kinase 1 (P06493 whole entry): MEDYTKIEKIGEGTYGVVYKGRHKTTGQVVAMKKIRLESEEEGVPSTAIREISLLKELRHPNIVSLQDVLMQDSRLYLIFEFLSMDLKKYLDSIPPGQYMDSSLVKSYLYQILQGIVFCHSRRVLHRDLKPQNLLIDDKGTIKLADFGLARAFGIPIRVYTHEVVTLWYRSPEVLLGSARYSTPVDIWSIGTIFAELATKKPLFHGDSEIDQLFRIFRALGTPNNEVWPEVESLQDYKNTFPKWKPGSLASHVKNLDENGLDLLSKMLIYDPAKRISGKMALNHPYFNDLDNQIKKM

| Compound | IC50 |
| --- | --- |
| Cc1cc2cnc(Nc3cnn(CC4(N(C)C)CC4)c3)nc2c(N2CCC3(C2)CC3(F)F)n1 (stereo unspecified) [US20250235456, Compound 36] | > 2000 nM |
| Cc1cc2cnc(NC3CCN(S(=O)(=O)CCC4(C)CC4)CC3)nc2c(N2CC(F)(F)C3(CNC3)C2)n1 [US20250235456, Compound 67] | 200 to 500 nM |
| Cc1cc2cnc(NC3CCN(S(C)(=O)=O)CC3)nc2c(N2CC3(CNCC3C(F)F)C2)n1 (stereo unspecified) [US20250235456, Compound 100] | < 200 nM |
| Cc1cc2cnc(NC3CCN(S(C)(=O)=O)CC3)nc2c(N2CC3(CN(C)CC3(F)F)C2)n1 [US20250235456, Compound 101] | 200 to 500 nM |

Second part, the molecule after the results:

| IC50 | Compound |
| --- | --- |
| < 200 nM | Cc1cc2cnc(NC3CCN(S(C)(=O)=O)CC3)nc2c(N2CC3(CNCC3(F)F)C2)n1 [US20250235456, Compound 85] |
| < 200 nM | CN1Cc2ccc(Nc3ncc4ccnc(N5CCC6(C5)CC6(F)F)c4n3)cc2C1 (stereo unspecified) [US20250235456, Compound 22] |
| 200 to 500 nM | Cc1cc2cnc(NC3CCN(S(=O)(=O)C4CC4)CC3)nc2c(N2CC(OC3CC3)C2)n1 [US20250235456, Compound 57] |
| > 2000 nM | Cc1cc2cnc(NC3CC4CC3CN4C)nc2c(N2CCC3(C2)CC3(F)F)n1 (stereo unspecified) [US20250235456, Compound 43] |
| < 200 nM | Cc1cc2cnc(NC3CCN(S(C)(=O)=O)CC3)nc2c(C2CC(C)(CO)C2)n1 (stereo unspecified) [US20250235456, Compound 69] |
| > 2000 nM | Cc1cc2cnc(N[C@@H]3CCOC[C@H]3O)nc2c(N2CC(O)(C3CC3)C2)n1 [US20250235456, Compound 86] |

Molecular target: Cyclin-dependent kinase 6/G1/S-specific cyclin-D3 (Homo sapiens, UniProt Q00534)
Assay: CDK6/Cyclin D3 ADP-Glo Kinase Assay
Experimental: as §1, with “of the CDK6/Cyclin D3” for “of CDK1/Cyclin Bi”, “values) in the presence” for “values)”, “assay. CDK6/Cyclin D3” for “assay. CDK1/Cyclin B1”, “activity. CDK6/Cychin D3” for “activity. CDK1/Cyclin B1”, “from Carna.” for “from Carna (Cat 04-102).”, “a 90-minute” for “a 90 minute”

Chain of Cyclin-dependent kinase 6/G1/S-specific cyclin-D3 (Q00534 whole entry): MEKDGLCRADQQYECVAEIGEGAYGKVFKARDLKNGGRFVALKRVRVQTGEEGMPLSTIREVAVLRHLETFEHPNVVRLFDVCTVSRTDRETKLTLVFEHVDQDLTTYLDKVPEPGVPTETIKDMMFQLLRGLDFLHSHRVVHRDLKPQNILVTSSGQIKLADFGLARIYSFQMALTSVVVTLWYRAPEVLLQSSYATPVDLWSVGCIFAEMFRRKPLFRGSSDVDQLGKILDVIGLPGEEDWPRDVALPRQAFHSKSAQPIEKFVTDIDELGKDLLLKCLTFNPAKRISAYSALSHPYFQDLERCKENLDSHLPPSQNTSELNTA
Chain of Cyclin-dependent kinase 6/G1/S-specific cyclin-D3 (P30281 whole entry, further chain): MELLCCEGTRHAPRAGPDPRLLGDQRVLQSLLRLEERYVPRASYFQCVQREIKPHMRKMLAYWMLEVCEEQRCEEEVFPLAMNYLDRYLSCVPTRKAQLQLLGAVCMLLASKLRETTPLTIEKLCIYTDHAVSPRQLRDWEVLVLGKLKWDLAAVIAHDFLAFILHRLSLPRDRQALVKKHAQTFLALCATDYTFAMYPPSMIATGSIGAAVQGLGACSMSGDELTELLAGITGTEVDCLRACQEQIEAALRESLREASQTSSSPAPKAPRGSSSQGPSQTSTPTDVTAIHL

| Compound | IC50 |
| --- | --- |
| Cc1cc2cnc(NC3CCN(S(=O)(=O)CCC4(C)CC4)CC3)nc2c(N2CC(F)(F)C3(CNC3)C2)n1 [US20250235456, Compound 67] | 200 to 500 nM |
| Cc1cc2cnc(NC3CCN(S(C)(=O)=O)CC3)nc2c(N2CC3(CNCC3C(F)F)C2)n1 (stereo unspecified) [US20250235456, Compound 100] | < 200 nM |
| Cc1cc2cnc(NC3CCN(S(=O)(=O)C4CC4)CC3)nc2c(N2CC3(CC(O)C3)C2)n1 [US20250235456, Compound 66] | < 200 nM |
| Cc1cc2cnc(NC3CCN(S(=O)(=O)C4(C)CC4)CC3)nc2c(N2CCC3(CN(C)C3)C2)n1 [US20250235456, Compound 59] | < 200 nM |
| Cc1cc2cnc(NC3CCN(S(C)(=O)=O)CC3)nc2c(N2CC3(CN(C)CC3(F)F)C2)n1 [US20250235456, Compound 101] | < 200 nM |

Continued, values first:

| IC50 | Compound |
| --- | --- |
| 200 to 500 nM | Cc1cc2cnc(NC3CCN(S(=O)(=O)C4CC4)CC3)nc2c(N2CC3(C2)CN(C2CC2)C3)n1 [US20250235456, Compound 48] |
| < 200 nM | Cc1cc2cnc(NC3CCN(S(C)(=O)=O)CC3)nc2c(N2CC3(CNCC3(F)F)C2)n1 [US20250235456, Compound 85] |
| < 200 nM | CN1Cc2ccc(Nc3ncc4ccnc(N5CCC6(C5)CC6(F)F)c4n3)cc2C1 (stereo unspecified) [US20250235456, Compound 22] |
| < 200 nM | Cc1cc2cnc(NC3CCN(S(=O)(=O)C4CC4)CC3)nc2c(N2CC(OC3CC3)C2)n1 [US20250235456, Compound 57] |
| 200 to 500 nM | Cc1cc2cnc(NC3CC4CC3CN4C)nc2c(N2CCC3(C2)CC3(F)F)n1 (stereo unspecified) [US20250235456, Compound 43] |
| < 200 nM | CS(=O)(=O)N1CCC(Nc2ncc3cc(C(F)F)nc(N4CC5(CCNCC5(F)F)C4)c3n2)CC1 [US20250235456, Compound 90] |
| 200 to 500 nM | Cc1cc2cnc(N[C@@H]3CCOC[C@H]3O)nc2c(N2CC(O)(C3CC3)C2)n1 [US20250235456, Compound 86] |

Molecular target: Cyclin-dependent kinase 2/G1/S-specific cyclin-E1 (Homo sapiens, UniProt P24941)
Assay: CDK2/Cyclin E1 ADP-Glo Kinase Assay
Experimental: as §1, with “of CDK2/Cyclin El” for “of CDK1/Cyclin Bi”, “assay. CDK2/Cyclin El full length” for “assay. CDK1/Cyclin B1”, “activity. CDK2/Cyclin E1” for “activity. CDK1/Cyclin B1”, “from Eurofins” for “from Carna”, “(Cat 14-475M).” for “(Cat 04-102).”, “20 uL” for “20 μL”

| Compound | IC50 |
| --- | --- |
| Cc1cc2cnc(Nc3cnn(CC4(N(C)C)CC4)c3)nc2c(N2CCC3(C2)CC3(F)F)n1 (stereo unspecified) [US20250235456, Compound 36] | in the range around 350 nM |
| Cc1cc2cnc(NC3CCN(S(=O)(=O)CCC4(C)CC4)CC3)nc2c(N2CC(F)(F)C3(CNC3)C2)n1 [US20250235456, Compound 67] | < 200 nM |
| Cc1cc2cnc(NC3CCN(S(C)(=O)=O)CC3)nc2c(N2CC3(CNCC3C(F)F)C2)n1 (stereo unspecified) [US20250235456, Compound 100] | < 200 nM |
| Cc1cc2cnc(NC3CCN(S(=O)(=O)C4CC4)CC3)nc2c(N2CC3(CC(O)C3)C2)n1 [US20250235456, Compound 66] | < 200 nM |
| Cc1cc2cnc(NC3CCN(S(=O)(=O)C4(C)CC4)CC3)nc2c(N2CCC3(CN(C)C3)C2)n1 [US20250235456, Compound 59] | < 200 nM |
| Cc1cc2cnc(NC3CCN(S(=O)(=O)c4ccn(C)n4)CC3)nc2c(N2CC(F)(F)C3(CNC3)C2)n1 [US20250235456, Compound 94] | < 200 nM |
| Cc1cc2cnc(NC3CCN(S(C)(=O)=O)CC3)nc2c(N2CC3(CN(C)CC3(F)F)C2)n1 [US20250235456, Compound 101] | < 200 nM |

More lines, now with the values ahead:

| IC50 | Compound |
| --- | --- |
| < 200 nM | Cc1cc2cnc(NC3CCN(S(=O)(=O)C4CC4)CC3)nc2c(N2CC3(C2)CN(C2CC2)C3)n1 [US20250235456, Compound 48] |
| < 200 nM | Cc1cc2cnc(NC3CCN(S(C)(=O)=O)CC3)nc2c(N2CC3(CNCC3(F)F)C2)n1 [US20250235456, Compound 85] |
| < 200 nM | CN1Cc2ccc(Nc3ncc4ccnc(N5CCC6(C5)CC6(F)F)c4n3)cc2C1 (stereo unspecified) [US20250235456, Compound 22] |
| < 200 nM | Cc1cc2cnc(NC3CCN(S(=O)(=O)C4CC4)CC3)nc2c(N2CC(OC3CC3)C2)n1 [US20250235456, Compound 57] |
| in the range around 1250 nM | Cc1cc2cnc(NC3CC4CC3CN4C)nc2c(N2CCC3(C2)CC3(F)F)n1 (stereo unspecified) [US20250235456, Compound 43] |
| < 200 nM | CS(=O)(=O)N1CCC(Nc2ncc3cc(C(F)F)nc(N4CC5(CCNCC5(F)F)C4)c3n2)CC1 [US20250235456, Compound 90] |
| in the range around 350 nM | Cc1cc2cnc(N[C@@H]3CCOC[C@H]3O)nc2c(N2CC(O)(C3CC3)C2)n1 [US20250235456, Compound 86] |
